Results from patent US20230303565A1, “PESTICIDALLY ACTIVE HETEROCYCLIC DERIVATIVES WITH SULFUR CONTAINING SUBSTITUENTS” (SYNGENTA CROP PROTECTION AG, priority 2020, published 2023).

Assays:
Assay type in all cases: in vivo
[1] = test system: Frankliniella occidentalis (Western Flower Thrips); test: Activity against Frankliniella occidentalis (western flower thrips), feeding/contact activity, sunflower leaf discs; conditions: foliar, 168 h, application rate of 200 ppm, population of mixed ages, 7 days after infestation
Method: Example B4: Activity Against Frankliniella occidentalis (Western Flower Thrips) Feeding/Contact Activity
Sunflower leaf discs were placed on agar in 24-well microtiter plates and sprayed with aqueous test solutions prepared from […] stock solutions. After drying the leaf discs were infested with a Frankliniella population of mixed ages. The samples were assessed for mortality 7 days after infestation.

[2] = test system: Diabrotica Balteata (Corn Root Worm); test: Activity against Diabrotica balteata (corn root worm), maize sprouts on agar; conditions: 96 h, application rate of 200 ppm, L2 larvae, 4 days after infestation, in comparison to untreated samples, read-out: effect in at least one of the two categories (mortality or growth inhibition)
Method: Example B2: Activity Against Diabrotica Balteata (Corn Root Worm)
Maize sprouts placed onto an agar layer in 24-well microtiter plates were treated with aqueous test solutions prepared from 10′000 ppm DMSO stock solutions by spraying. After drying, the plates were infested with L2 larvae (6 to 10 per well). The samples were assessed for mortality and growth inhibition in comparison to untreated samples 4 days after infestation.

[3] = test system: Carpocapsa (Cydia) Pomonella (Codling Moth); test: Activity against Carpocapsa (Cydia) pomonella (codling moth), larvicide, feeding/contact, diet cubes; conditions: 336 h, application rate of 12.5 ppm, L1 larvae, 14 days after infestation, 26-27° C.
Method: Example B9: Activity Against Carpocapsa (Cydia) Pomonella (Codling Moth)) Larvicide, Feeding/Contact
Diet cubes coated with paraffin were sprayed with diluted test solutions in an application chamber. After drying off the treated cubes (10 replicates) were infested with 1 L1 larvae. Samples were incubated at 26-27° C. and checked 14 days after infestation for mortality and growth inhibition.

[4] = test system: Myzus persicae (Green Peach Aphid); test: Activity against Myzus persicae (green peach aphid), feeding/contact activity, sunflower leaf discs; conditions: foliar, 144 h, application rate of 200 ppm, aphid population of mixed ages, 6 days after infestation
Method: Example B5: Activity Against Myzus persicae (Green Peach Aphid) Feeding/Contact Activity
Sunflower leaf discs were placed onto agar in a 24-well microtiter plate and sprayed with aqueous test solutions prepared from 10′000 ppm DMSO stock solutions. After drying, the leaf discs were infested with an aphid population of mixed ages. The samples were assessed for mortality 6 days after infestation.

[5] = test system: Bemisia tabaci (Cotton White Fly); test: Activity against Bemisia tabaci (cotton white fly), cotton leaf discs; conditions: foliar, 144 h, application rate of 200 ppm, adult white flies, 6 days after incubation
Method: Example B8: Activity Against Bemisia tabaci (Cotton White Fly)
Cotton leaf discs were placed on agar in 24-well microtiter plates and sprayed with aqueous test solutions prepared from 10′000 ppm DMSO stock solutions. After drying the leaf discs were infested with adult white flies. The samples were checked for mortality 6 days after incubation.

[6] = test system: Chilo suppressalis (Striped Rice Stemborer); test: Activity against Chilo suppressalis (striped rice stemborer), artificial diet in 24-well plates; conditions: 144 h, application rate of 200 ppm, L2 larvae, 6 days after infestation, in comparison to untreated samples, read-out: control (at least one of mortality, anti-feedant effect, growth inhibition)
Method: Example B1: Activity Against Chilo suppressalis (Striped Rice Stemborer)
24-well microtiter plates with artificial diet were treated with aqueous test solutions prepared from 10′000 ppm DMSO stock solutions by pipetting. After drying, the plates were infested with L2 larvae (6-8 per well). The samples were assessed for mortality, anti-feeding effect, and growth inhibition in comparison to untreated samples 6 days after infestation. Control of Chilo suppressalis by a test sample is given when at least one of the categories mortality, anti-feedant effect, and growth inhibition is higher than the untreated sample.

[7] = test system: Plutella xylostella (Diamond Back Moth); test: Activity against Plutella xylostella (diamond back moth), artificial diet in 24-well plates; conditions: 192 h, application rate of 200 ppm, Plutella eggs, 8 days after infestation, in comparison to untreated samples, read-out: effect in at least one of the two categories (mortality or growth inhibition)
Method: Example B6: Activity Against Plutella xylostella (Diamond Back Moth)
24-well microtiter plates with artificial diet were treated with aqueous test solutions prepared from 10′000 ppm DMSO stock solutions by pipetting. After drying, Plutella eggs were pipetted through a plastic stencil onto a gel blotting paper and the plate was closed with it. The samples were assessed for mortality and growth inhibition in comparison to untreated samples 8 days after infestation.

[8] = test system: Spodoptera littoralis (Egyptian Cotton Leaf Worm); test: Activity against Spodoptera littoralis (Egyptian cotton leaf worm), cotton leaf discs; conditions: foliar, 72 h, application rate of 200 ppm, L1 larvae, 3 days after infestation, in comparison to untreated samples, read-out: control (at least one of mortality, anti-feedant effect, growth inhibition)
Method: Example B7: Activity Against Spodoptera littoralis (Egyptian Cotton Leaf Worm)
Cotton leaf discs were placed onto agar in 24-well microtiter plates and sprayed with aqueous test solutions prepared from 10′000 ppm DMSO stock solutions. After drying the leaf discs were infested with five L1 larvae. The samples were assessed for mortality, anti-feeding effect, and growth inhibition in comparison to untreated samples 3 days after infestation. Control of Spodoptera littoralis by a test sample is given when at least one of the categories mortality, anti-feedant effect, and growth inhibition is higher than the untreated sample.

[9] = test system: Euschistus heros (Neotropical Brown Stink Bug); test: Activity against Euschistus heros (neotropical brown stink bug), soybean leaves on agar; conditions: 120 h, application rate of 200 ppm, N2 nymphs, 5 days after infestation, in comparison to untreated samples, read-out: effect in at least one of the two categories (mortality or growth inhibition)
Method: Example B3: Activity Against Euschistus heros (Neotropical Brown Stink Bug)
Soybean leaves on agar in 24-well microtiter plates were sprayed with aqueous test solutions prepared from 10′000 ppm DMSO stock solutions. After drying the leaves were infested with N2 nymphs. The samples were assessed for mortality and growth inhibition in comparison to untreated samples 5 days after infestation.

CCS(=O)(=O)c1c(N2Cc3ccc(C4(C#N)CC4)cc3C2=O)nc2ccc(C3(C#N)CC3)cn12 [P6, 1-[2-[6-(1-cyanocyclopropyl)-3-ethylsulfonyl-imidazo[1,2-a]pyridin-2-yl]-3-oxo-isoindolin-5-yl]cyclopropanecarbonitrile]
≥ 80%: mortality at 200 ppm [1] | percent effect (mortality or growth inhibition) at 200 ppm [2] | mortality at 12.5 ppm [3] | mortality at 200 ppm [4] | mortality at 200 ppm [5] | percent control (mortality, anti-feedant effect or growth inhibition) at 200 ppm [6] | percent effect (mortality or growth inhibition) at 200 ppm [7] | percent control (mortality, anti-feedant effect or growth inhibition) at 200 ppm [8]

CCS(=O)(=O)c1c(N2Cc3cnc(C4CC4)cc3C2=O)nc2ccc(C(F)(F)F)cn12 [P10, 6-cyclopropyl-2-[3-ethylsulfonyl-6-(trifluoromethyl)imidazo[1,2-a]pyridin-2-yl]-3H-pyrrolo[3,4-c]pyridin-1-one]
≥ 80%: percent effect (mortality or growth inhibition) at 200 ppm [2] | percent control (mortality, anti-feedant effect or growth inhibition) at 200 ppm [6] | percent effect (mortality or growth inhibition) at 200 ppm [7] | percent control (mortality, anti-feedant effect or growth inhibition) at 200 ppm [8]

CCS(=O)(=O)c1c(N2Cc3ccc(OC(C)(C)C#N)cc3C2=O)nc2ccc(C(F)(F)F)cn12 [P9, 2-[2-[3-ethylsulfonyl-6-(trifluoromethyl)imidazo[1,2-a]pyridin-2-yl]-3-oxo-isoindolin-5-yl]oxy-2-methyl-propanenitrile]
≥ 80%: percent effect (mortality or growth inhibition) at 200 ppm [2] | mortality at 200 ppm [4] | mortality at 200 ppm [5] | percent control (mortality, anti-feedant effect or growth inhibition) at 200 ppm [6] | percent effect (mortality or growth inhibition) at 200 ppm [7] | percent control (mortality, anti-feedant effect or growth inhibition) at 200 ppm [8]

CCS(=O)(=O)c1c(N2Cc3ncc(C4CC4)cc3C2=O)nc2ccc(C(F)(F)F)cn12 [P11, 3-cyclopropyl-6-[3-ethylsulfonyl-6-(trifluoromethyl)imidazo[1,2-a]pyridin-2-yl]-7H-pyrrolo[3,4-b]pyridin-5-one]
≥ 80%: percent control (mortality, anti-feedant effect or growth inhibition) at 200 ppm [6] | percent effect (mortality or growth inhibition) at 200 ppm [7] | percent control (mortality, anti-feedant effect or growth inhibition) at 200 ppm [8]

CCS(=O)(=O)c1c(N2Cc3ccc(C4(C#N)CC4)cc3C2=O)nc2ccc(C3CC3)cn12 [P5, 1-[2-(6-cyclopropyl-3-ethylsulfonyl-imidazo[1,2-a]pyridin-2-yl)-3-oxo-isoindolin-5-yl]cyclopropanecarbonitrile]
≥ 80%: percent effect (mortality or growth inhibition) at 200 ppm [2] | percent control (mortality, anti-feedant effect or growth inhibition) at 200 ppm [6] | percent effect (mortality or growth inhibition) at 200 ppm [7] | percent control (mortality, anti-feedant effect or growth inhibition) at 200 ppm [8]

CCS(=O)(=O)c1c(N2Cc3ccc(C4(C#N)CC4)cc3C2=O)nc2ccc(C(C)(F)F)cn12 [P4, 1-[2-[6-(1,1-difluoroethyl)-3-ethylsulfonyl-imidazo[1,2-a]pyridin-2-yl]-3-oxo-isoindolin-5-yl]cyclopropanecarbonitrile]
≥ 80%: percent effect (mortality or growth inhibition) at 200 ppm [2] | mortality at 12.5 ppm [3] | mortality at 200 ppm [4] | mortality at 200 ppm [5] | percent control (mortality, anti-feedant effect or growth inhibition) at 200 ppm [6] | percent effect (mortality or growth inhibition) at 200 ppm [7] | percent control (mortality, anti-feedant effect or growth inhibition) at 200 ppm [8]

CCS(=O)(=O)c1c(N2Cc3ccc(C4(C#N)CC4)cc3C2=O)nc2ccc(C(F)(F)F)cn12 [P1, 1-[2-[3-ethylsulfonyl-6-(trifluoromethyl)imidazo[1,2-a]pyridin-2-yl]-3-oxo-isoindolin-5-yl]cyclopropanecarbonitrile]
≥ 80%: mortality at 200 ppm [1] | percent effect (mortality or growth inhibition) at 200 ppm [2] | mortality at 12.5 ppm [3] | mortality at 200 ppm [4] | percent effect (mortality or growth inhibition) at 200 ppm [9] | percent control (mortality, anti-feedant effect or growth inhibition) at 200 ppm [6] | percent effect (mortality or growth inhibition) at 200 ppm [7] | percent control (mortality, anti-feedant effect or growth inhibition) at 200 ppm [8]

CCS(=O)(=O)c1c(N2Cc3ncc(C4(C#N)CC4)cc3C2=O)nc2ccc(C(F)(F)F)cn12 [P2, 1-[6-[3-ethylsulfonyl-6-(trifluoromethyl)imidazo[1,2-a]pyridin-2-yl]-5-oxo-7H-pyrrolo[3,4-b]pyridin-3-yl]cyclopropanecarbonitrile]
≥ 80%: mortality at 200 ppm [1] | percent effect (mortality or growth inhibition) at 200 ppm [2] | mortality at 12.5 ppm [3] | mortality at 200 ppm [4] | percent effect (mortality or growth inhibition) at 200 ppm [9] | percent control (mortality, anti-feedant effect or growth inhibition) at 200 ppm [6] | percent effect (mortality or growth inhibition) at 200 ppm [7] | percent control (mortality, anti-feedant effect or growth inhibition) at 200 ppm [8]

CCS(=O)(=O)c1c(N2Cc3ccc(S(=O)(=O)C4CC4)cc3C2=O)nc2ccc(C(F)(F)F)cn12 [P8, 6-cyclopropylsulfonyl-2-[3-ethylsulfonyl-6-(trifluoromethyl)imidazo[1,2-a]pyridin-2-yl]isoindolin-1-one]
≥ 80%: percent effect (mortality or growth inhibition) at 200 ppm [2] | mortality at 12.5 ppm [3] | mortality at 200 ppm [4] | percent control (mortality, anti-feedant effect or growth inhibition) at 200 ppm [6] | percent effect (mortality or growth inhibition) at 200 ppm [7] | percent control (mortality, anti-feedant effect or growth inhibition) at 200 ppm [8]

CCS(=O)(=O)c1c(N2Cc3ccc(C4(C#N)CC4)cc3C2=O)nc2ccc(C(C)(C)C#N)cn12 [P7, 1-[2-[6-(1-cyano-1-methyl-ethyl)-3-ethylsulfonyl-imidazo[1,2-a]pyridin-2-yl]-3-oxo-isoindolin-5-yl]cyclopropanecarbonitrile]
≥ 80%: percent effect (mortality or growth inhibition) at 200 ppm [2] | percent control (mortality, anti-feedant effect or growth inhibition) at 200 ppm [6] | percent effect (mortality or growth inhibition) at 200 ppm [7] | percent control (mortality, anti-feedant effect or growth inhibition) at 200 ppm [8]

CCS(=O)(=O)c1c(N2Cc3ccc(C4(C#N)CC4)cc3C2=O)nn2ccc(C(F)(F)F)cc12 [P3, 1-[2-[3-ethylsulfonyl-5-(trifluoromethyl)pyrazolo[1,5-a]pyridin-2-yl]-3-oxo-isoindolin-5-yl]cyclopropanecarbonitrile]
≥ 80%: percent effect (mortality or growth inhibition) at 200 ppm [2] | mortality at 200 ppm [5] | percent control (mortality, anti-feedant effect or growth inhibition) at 200 ppm [6] | percent effect (mortality or growth inhibition) at 200 ppm [7] | percent control (mortality, anti-feedant effect or growth inhibition) at 200 ppm [8]

CCS(=O)(=O)c1c(N2Cc3ccc(C4CC4)cc3C2=O)nc2ccc(C(F)(F)F)cn12 [P12, 6-cyclopropyl-2-[3-ethylsulfonyl-6-(trifluoromethyl)imidazo[1,2-a]pyridin-2-yl]isoindolin-1-one]
≥ 80%: percent effect (mortality or growth inhibition) at 200 ppm [2] | percent control (mortality, anti-feedant effect or growth inhibition) at 200 ppm [6] | percent effect (mortality or growth inhibition) at 200 ppm [7] | percent control (mortality, anti-feedant effect or growth inhibition) at 200 ppm [8]
